PMC6117091, “The C. difficile clnRAB operon initiates adaptations to the host environment in response to LL-37” (PLoS Pathogens, 2018)
Converted amounts (≈) assume the structure as drawn.

How the values were obtained:
[1] = tested on: C. difficile clnAB mutant; assay: Growth in minimal medium with LL-37, maximum doubling time; details: mean ± SD, n ≥ 3
[2] = tested on: C. difficile clnR Tn::clnRAB; assay: as above; details: mean ± SD, n ≥ 3
[3] = tested on: C. difficile 630Δerm; assay: qRT-PCR of selected RNA-seq transcripts in LL-37; details: 2 µg/ml LL-37; normalized to 630∆erm in BHIS; mean ± SEM, n ≥ 3
[4] = tested on: C. difficile clnR and clnA mutants; assay: Growth in BHIS with LL-37; details: 2.5 μg/ml LL-37 in BHIS, versus parent strain
[5] = tested on: C. difficile clnAB mutant (MC935); assay: Minimum inhibitory concentration (MIC); type: cell-based, Clostridioides difficile; details: Mueller-Hinton Broth, 24 h, 37°C, anaerobic, ~5 x 10^5 CFU/ml
Protocol: (§1) Minimum inhibitory concentrations (MIC) were determined as previously described. […] Briefly, overnight cultures of C. difficile strains were diluted 1:50 in Mueller-Hinton Broth (Difco) and grown to OD600 of 0.45 (~5 x 10^7 CFU/ml). Cultures were then diluted 1:10 in MHB and seeded at a further 1:10 dilution in a round-bottom 96-well plate prepared with serial dilutions of antimicrobials for a starting concentration of ~5 x 10^5 CFU/ml. Plates were incubated for 24 h at 37°C in the anaerobic chamber.

[6] = tested on: C. difficile clnR mutant (MC885); assay: Minimum inhibitory concentration (MIC); type: cell-based, Clostridioides difficile; details: Mueller-Hinton Broth, 24 h, 37°C, anaerobic, ~5 x 10^5 CFU/ml
Protocol: as §1

[7] = tested on: C. difficile 630Δerm; assay: Minimum inhibitory concentration (MIC); type: cell-based, Clostridioides difficile; details: Mueller-Hinton Broth, 24 h, 37°C, anaerobic, ~5 x 10^5 CFU/ml
Protocol: as §1

[8] = tested on: C. difficile clnAB mutant (MC935); assay: Minimum bactericidal concentration (MBC); type: cell-based, Clostridioides difficile; details: 1:10 dilution into BHIS, 24 h, 37°C, anaerobic
[9] = tested on: C. difficile 630Δerm; assay: Growth in minimal medium with LL-37, maximum doubling time; details: mean ± SD, n ≥ 3
[10] = tested on: C. difficile clnR and clnAB mutants; assay: Growth in minimal medium with LL-37 (growth curves); details: 0.5 μg/ml LL-37; base MM, MM with mannitol, NAG, EA; versus parent strain
[11] = tested on: TcdA in C. difficile 630Δerm (parent strain); assay: TcdA western blot; details: 2 μg/ml LL-37, TY medium, 24 h, 37°C; three replicates
[12] = tested on: C. difficile clnAB Tn::clnRAB; assay: qRT-PCR of selected RNA-seq transcripts in LL-37; details: 2 µg/ml LL-37; normalized to 630∆erm in BHIS; mean ± SEM, n ≥ 3
[13] = 0.5 µg/ml LL-37, MM + 30 mM NAG, § p < 0.05 vs no LL-37
[14] = 0.5 µg/ml LL-37, MM + 30 mM ethanolamine
[15] = 0.5 µg/ml LL-37, MM + 30 mM fructose
[16] = 0.5 µg/ml LL-37, MM + 30 mM glucose
[17] = 0.5 µg/ml LL-37, MM + 30 mM mannitol
[18] = 0.5 µg/ml LL-37, MM + 30 mM mannose

In the case of `CC[C@H](C)[C@H](NC(=O)[C@H](CCCCN)NC(=O)[C@H](CCC(=O)O)NC(=O)[C@H](CCCCN)NC(=O)[C@H](CO)NC(=O)[C@H](CCCCN)NC(=O)[C@H](CCCNC(=N)N)NC(=O)[C@H](Cc1ccccc1)NC(=O)[C@H](Cc1ccccc1)NC(=O)[C@H](CC(=O)O)NC(=O)CNC(=O)[C@H](CC(C)C)NC(=O)[C@@H](N)CC(C)C)C(=O)NCC(=O)N[C@@H](CCCCN)C(=O)N[C@@H](CCC(=O)O)C(=O)N[C@@H](Cc1ccccc1)C(=O)N[C@@H](CCCCN)C(=O)N[C@@H](CCCNC(=N)N)C(=O)N[C@H](C(=O)N[C@H](C(=O)N[C@@H](CCC(N)=O)C(=O)N[C@@H](CCCNC(=N)N)C(=O)N[C@H](C(=O)N[C@@H](CCCCN)C(=O)N[C@@H](CC(=O)O)C(=O)N[C@@H](Cc1ccccc1)C(=O)N[C@@H](CC(C)C)C(=O)N[C@@H](CCCNC(=N)N)C(=O)N[C@@H](CC(N)=O)C(=O)N[C@@H](CC(C)C)C(=O)N[C@H](C(=O)N1CCC[C@H]1C(=O)N[C@@H](CCCNC(=N)N)C(=O)N[C@H](C(=O)N[C@@H](CCC(=O)O)C(=O)N[C@@H](CO)C(=O)O)[C@@H](C)O)C(C)C)[C@@H](C)CC)C(C)C)[C@@H](C)CC` [LL-37], the Doubling time [1, 13] is reported as 80.3 ± 1.0 min, the Doubling time [1, 14] is reported as 79.6 ± 9.0 min and the Doubling time [1, 15] is reported as 65.1 ± 2.0 min. For the same compound, the Doubling time [1, 16] was 62.1 ± 2.2 min, the Doubling time [1, 17] was 58.3 ± 5.5 min and the Doubling time [1, 18] was 66.8 ± 4.5 min. It also gave a Doubling time ([1]; 0.5 µg/ml LL-37, base MM) of 77.1 ± 5.3 min, a Doubling time ([2]; 0.5 µg/ml LL-37, MM + 30 mM NAG) of 111.1 ± 16.5 min and a Doubling time [2, 14] of 93.4 ± 12.2 min. It also gave a Doubling time [2, 15] of 80.4 ± 7.4 min, a Doubling time [2, 16] of 76.4 ± 5.4 min and a Doubling time [2, 17] of 75.6 ± 5.3 min. The Doubling time [2, 18] was 80.4 ± 8.3 min, the Doubling time ([2]; 0.5 µg/ml LL-37, base MM, § p < 0.05 vs no LL-37) was 84.8 ± 4.5 min and the CD630_02840 relative expression [3] was 29.3 ± 18.8. The “grdA (CD630_23520) relative expression” value [3] was 16.5 ± 10.5, the “iorA (CD630_23810) relative expression” value [3] was 16.8 ± 8.4 and the “mtlA (CD630_23340) relative expression” value [3] was 1.0 ± 0.3. The “sigU (csfU; CD630_18870) relative expression” value [3] was 10.5 ± 6.8, the “growth (in words)” value [4] was “grew slightly better than the parent strain” and the MIC [5] was 15 µg/mL (≈ 3.34 µM). For the same compound, the MIC [6] was 15 µg/mL (≈ 3.34 µM), the MIC [7] was 15 µg/mL (≈ 3.34 µM) and the MBC [8] was 20 µg/mL (≈ 4.45 µM). It also gave a Doubling time [9, 13] of 91.5 ± 5.7 min, a Doubling time [9, 14] of 90.7 ± 7.9 min and a Doubling time [9, 15] of 70.2 ± 3.9 min. For the same compound, the Doubling time [9, 16] was 67.7 ± 4.9 min, the Doubling time [9, 17] was 69.9 ± 3.4 min and the Doubling time [9, 18] was 70.3 ± 5.5 min. The Doubling time ([9]; 0.5 µg/ml LL-37, base MM) was 82.2 ± 5.1 min, the “growth (in words)” value [10] was “grew better than the parent strain” and the “TcdA levels, fold decrease” value [11] was “about 3 fold”. The “cstA (CD630_26000) relative expression” value [12] was 1.3 ± 0.2, the “grdA (CD630_23520) relative expression” value [12] was 1.6 ± 0.2 and the “mtlA (CD630_23340) relative expression” value [12] was 0.7 ± 0.4. For the same compound, the “sigT (csfT; CD630_06770) relative expression” value [12] was 1.2 ± 0.2, the “sigU (csfU; CD630_18870) relative expression” value [12] was 0.8 ± 0.1 and the “vanZ1 (CD630_12400) relative expression” value [12] was 0.6 ± 0.1.
